For twelve compounds, melting point results are on record in US20070197603A1 (published 2007).

The melting point is the temperature of the solid-liquid transition. Take `CCCn1c(-c2ccccc2)c(CN2CCC(c3c(Cl)cccc3Cl)CC2)c2ccccc21.Cl`: the melting point was in the range of 150 to 152 °C.
With `Cl.OCCn1c(-c2ccccc2)c(CN2CCC(c3c(Cl)cccc3Cl)CC2)c2ccccc21` the figure was 205 to 206 °C.
Turning to `Cl.Clc1cccc(Cl)c1C1CCN(Cc2cc3ccccc3[nH]2)CC1`, the melting point lay within 238 to 240 °C.
The value for `Cl.Clc1cccc(Cl)c1C1CCN(Cc2c(-c3ccccc3)n(Cc3ccccc3)c3ccccc23)CC1` was 209 to 210 °C; that for `Cc1c(CN2CCC(c3c(Cl)cccc3Cl)CC2)[nH]c2ccccc12` was 139 to 141 °C; that for `Cl.Clc1cccc(Cl)c1C1CCN(Cc2c[nH]c3ccccc23)CC1` was 189 to 190 °C.
`Cl.Clc1cccc(Cl)c1C1CCN(Cc2c(-c3ccccc3)[nH]c3ccccc23)CC1` showed a melting point of 169 to 171 °C.
The value for `Cc1[nH]c2ccccc2c1CN1CCC(c2c(Cl)cccc2Cl)CC1` was 168 to 170 °C; that for `Cl.Cn1c(-c2ccccc2)c(CN2CCC(c3c(Cl)cccc3Cl)CC2)c2ccccc21` was 179 to 184 °C (dec.).
With `Cc1cccc(C)c1C1CCN(Cc2cc3ccccc3[nH]2)CC1` the figure was 128 to 130 °C; with `Cl.OCCn1c(CN2CCC(c3c(Cl)cccc3Cl)CC2)cc2ccccc21`, 263 to 265 °C; with `Clc1cccc(Cl)c1C1CCN(Cc2[nH]c3ccccc3c2-c2ccccc2)CC1`, 162 to 164 °C.
